How the values were obtained:
[1] = DPV detection of cleaved redox labels in RPA reactions (peak potential and current); type: physicochemical; conditions: for ΔE vs MB / E (DPV peak potential of cleaved label): label cleaved from Fpg probe in RPA, DPV
Method: DNA and RNA amplification by RPA can be monitored in real-time or by end-product detection using the TwistAmp® basic kit with DPV detection. Briefly, a clinical sample (e.g., a clinical swab or wipe) is added to an RPA reagent mixture specific for a target nucleic acid sequence, the reagent mixture containing an Exo or Fpg oligonucleotide probe labeled with a redox-moiety, such as those described above, and maintained at 37° C.-42° C. for a time sufficient for amplification. Incubation in the presence of an ExoIII or Fpg exonuclease results in cleavage of probe/target DNA hybrids which allows for liberation of the redox-moiety (see FIG. 14). The liberated redox-moiety can be detected by, for example, amperometry, voltammetry (e.g., Differential Pulse voltammetry), and AC-impedance. Where the redox label has been cleaved from the probe/target complex (i.e., a sample positive for the target nucleic acid) a peak in current is observed at a voltage which corresponds to the oxidation potential of the label. Where the redox label has not been released from the oligonucleotide probe (i.e., a sample negative for the target nucleic acid), no peak is observed.
A “DPV output” of a given RPA reaction is determined by measuring the signal current generated by the redox-label present in the reaction in response to applied potentials. The DPV procedure requires the definition of several key parameters: interval period (related to scan rate), step potential, amplitude of the pulse (amp) and time of the pulse (pulse width). An example of these settings were: interval period 0.1 s, step potential 5 mV, pulse amplitude 75 mV and pulse width 30 ms. In addition to these parameters for the actual measurement, the DPV protocol also entails a series of 3 initial sequences of potential changes (“sweeps”) the output of which is not being directly quantified.
At FIG. 1, a method for electrochemical detection of an amplified nucleic acid target sequence according to an embodiment of the present invention is show. […] In the presence of the target, multiple copies of the DNA strand complementary to the labeled oligonucleotide probe are generated using a nucleic acid amplification method, such as, for example, PCR, RPA (shown), or NEAR. Following amplification, the DNA strand complementary to the labeled oligonucleotide probe anneal (i.e., hybridize) with the probe and form a double-stranded substrate. In the presence of a nuclease, the redox moiety (i.e., redox label) is enzymatically cleaved from (e.g., separated from) from the double-stranded substrate effecting release of the redox label. Once cleaved, the redox moiety (i.e., redox label) is able to diffuse and interact with the electrode and detection of the redox moiety is achieved by, for example, DPV, whereby a potential window (E) is swept in a stepwise fashion, and the Faradaic current (I) associated with reduction of the label is recorded. Diffusing redox labels that have been enzymatically released from oligonucleotide probes generate a larger current response, thus enabling electrochemical detection of target amplification.
For example, during initial studies on Alere HeartCheck electrodes, redox moieties with a reduction potential (versus a Ag/AgCl reference electrode) of between approximately […] were considered optimal for multiplexing (FIG. 2). In order to resolve two redox moieties which fall within this window, a difference (ΔE) of approximately ≥50 mV in their peak potential is predicted to be sufficient. Thus, in the case of the HeartCheck electrode, there is a theoretical maximum multiplexing capacity of 5 labels within this window. Note however that alternative (electrode-dependent) windows for detection may be determined.

[2] = tested on: InfA[PA] and InfB[PA] DNA; test: Duplexed RPA detection with 1:1 mixture of MB- and PZ9-labelled probes on HeartCheck sensor; design: species or system Influenza A and Influenza B; conditions: duplexed detection at 15 min, 10^7 copies of each target, third order polynomial baseline correction
[3] = Aqueous solubility of redox label; type: physicochemical

SMILES	reduction peak potential ([1]; vs Ag/AgCl during DPV in an RPA context)	Emax of calculated Gaussian curve [2]	ΔE vs MB [1]	E (DPV peak potential of cleaved label) [1]	aqueous solubility [3]
CN(C)c1ccc2nc3ccc(N(C)C)cc3[s+]c2c1.[Cl-] [Methylene Blue, 3,7-bis(Dimethylamino)-phenothiazin-5-ium chloride]	−320 mV	−0.3731 V			
CN(CCCC(=O)O)c1ccc2nc3ccc(N(C)c4ccccc4)cc3[s+]c2c1.[Cl-] [PZ9]		−0.3046 V	~+60 mV		
CC/[N+](CCCS(=O)(=O)[O-])=c1/ccc2nc3ccc(N(C)CCC(=O)O)cc3oc-2c1 [PO2, N-(3-(N-methyl(2-carboxyethyl)amino)phenoxazin-7-ylidene)-N-ethyl(3-sulfonatopropyl)aminium chloride]			~−60 mV	~−0.44 V	good aqueous solubility
C[N+](C)=c1ccc2nc3c(cc(NCCC(=O)O)c4ccccc43)oc-2c1.[Cl-] [PO1, N-(5-(2-carboxyethylamino)-9H-benzo[a]phenoxazin-9-ylidene)-N-methylmethanaminium chloride]			~−140 mV	~−0.52 V	

Source: patent publication US12275985B2, “Redox labeled oligonucleotide probes and their use” (ABBOTT DIAGNOSTICS SCARBOROUGH, INC., priority 2016, dated 2025)
